Experiments:
Test in all cases: In vitro antibacterial evaluation: minimum inhibitory concentration (MIC), broth dilution method
Assay type in all cases: cell-based
Details in all cases: 18 hours at 35° C.
Enterococcus sp. = system: Enterococcus sp.
Method in brief: (§1)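 An MIC is reported for each organism as the least concentration giving inhibition, using broth dilution over 64-0.06 μg/mL with a 5×10^5 CFU/mL inoculum.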

Escherichia coli = system: Escherichia coli
Method in brief: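 First, organisms are seeded at 5×10^5 CFU/mL into Muller-Hinton II […]. Next, antibiotic is applied across 64-0.06 μg/mL by broth dilution (NCCLS M7-A2). Finally, the lowest inhibitory concentration is recorded as MIC.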

Staphylococcus sp. = system: Staphylococcus sp.
Method in brief: as §1

Streptococcus sp. = system: Streptococcus sp.
Method in brief: as §1

Substance: α-O-[(N-Methyl-2-methylpropylamino)carbonyl]-cyclo[glycyl-β-methylphenylalanyl-O-(4-O-hexopyranosylhexopyranosyl)tyrosyl-3-(2-iminoimidazolidin-4-yl)seryl-3-(3-hexopyranosyl-2-iminoimidazolidin-4-yl)serylseryl] [Example 255]
- MIC Enterococcus avium (GC 4558) (Enterococcus sp.; Enterococcus avium (GC 4558)): >0.5 µg/mL
- MIC Enterococcus faecalis (ATCC 29212) (Enterococcus sp.; Enterococcus faecalis (ATCC 29212)): >0.5 µg/mL
- MIC Enterococcus faecalis (GC 2242) (Enterococcus sp.; Enterococcus faecalis (GC 2242)): >0.5 µg/mL
- MIC Enterococcus faecalis (GC 2691) (Enterococcus sp.; Enterococcus faecalis (GC 2691)): >0.5 µg/mL
- MIC Enterococcus faecalis (GC 3059) (Enterococcus sp.; Enterococcus faecalis (GC 3059)): >0.5 µg/mL
- MIC Enterococcus faecalis (GC 4552) (Enterococcus sp.; Enterococcus faecalis (GC 4552)): >0.5 µg/mL
- MIC Enterococcus faecalis (GC 4553) (Enterococcus sp.; Enterococcus faecalis (GC 4553)): >0.5 µg/mL
- MIC Enterococcus faecalis (GC 4554) (Enterococcus sp.; Enterococcus faecalis (GC 4554)): >0.5 µg/mL
- MIC Enterococcus faecalis (GC 6189) (Enterococcus sp.; Enterococcus faecalis (GC 6189)): >0.5 µg/mL
- MIC Enterococcus faecium (GC 2243) (Enterococcus sp.; Enterococcus faecium (GC 2243)): >64 µg/mL
- MIC Enterococcus faecium (GC 4556) (Enterococcus sp.; Enterococcus faecium (GC 4556)): >64 µg/mL
- MIC Enterococcus faecium (GC 4557) (Enterococcus sp.; Enterococcus faecium (GC 4557)): 16 µg/mL
- MIC Enterococcus faecalis (ATCC 29212) (Enterococcus sp.; broth dilution, strain ATCC 29212): >0.5 µg/mL
- MIC Enterococcus faecalis (GC 2242) (Enterococcus sp.; broth dilution, strain GC 2242): >0.5 µg/mL
- MIC Enterococcus faecium (GC 2243) (Enterococcus sp.; broth dilution, strain GC 2243): >64 µg/mL
- MIC Enterococcus faecalis (GC 2691) (Enterococcus sp.; broth dilution, strain GC 2691): >0.5 µg/mL
- MIC Enterococcus faecalis (GC 3059) (Enterococcus sp.; broth dilution, strain GC 3059): >0.5 µg/mL
- MIC Enterococcus faecalis (GC 4552) (Enterococcus sp.; broth dilution, strain GC 4552): >0.5 µg/mL
- MIC Enterococcus faecalis (GC 4553) (Enterococcus sp.; broth dilution, strain GC 4553): >0.5 µg/mL
- MIC Enterococcus faecalis (GC 4554) (Enterococcus sp.; broth dilution, strain GC 4554): >0.5 µg/mL
- MIC Enterococcus faecium (GC 4556) (Enterococcus sp.; broth dilution, strain GC 4556): >64 µg/mL
- MIC Enterococcus faecium (GC 4557) (Enterococcus sp.; broth dilution, strain GC 4557): 16 µg/mL
- MIC Enterococcus avium (GC 4558) (Enterococcus sp.; broth dilution, strain GC 4558): >0.5 µg/mL
- MIC Enterococcus faecalis (GC 6189) (Enterococcus sp.; broth dilution, strain GC 6189): >0.5 µg/mL
- MIC Escherichia coli (ATCC 25922) (Escherichia coli; Escherichia coli (ATCC 25922)): >0.5 µg/mL
- MIC Escherichia coli (GC 4559) (Escherichia coli; Escherichia coli (GC 4559)): >0.5 µg/mL
- MIC Escherichia coli (GC 4560) (Escherichia coli; Escherichia coli (GC 4560)): 0.5 µg/mL
- MIC Coagulase Negative Staphylococcus (GC 4547) (Staphylococcus sp.; Coagulase Negative Staphylococcus (GC 4547)): 32 µg/mL
- MIC Coagulase Negative Staphylococcus (GC 4548) (Staphylococcus sp.; Coagulase Negative Staphylococcus (GC 4548)): 64 µg/mL
- MIC Coagulase Negative Staphylococcus (GC 4549) (Staphylococcus sp.; Coagulase Negative Staphylococcus (GC 4549)): 32 µg/mL
- MIC Coagulase Negative Staphylococcus (GC 4551) (Staphylococcus sp.; Coagulase Negative Staphylococcus (GC 4551)): 64 µg/mL
- MIC Coagulase Negative Staphylococcus (GC 6257) (Staphylococcus sp.; Coagulase Negative Staphylococcus (GC 6257)): 32 µg/mL
- MIC Staphylococcus aureus (ATCC 29213) (Staphylococcus sp.; Staphylococcus aureus (ATCC 29213)): >0.5 µg/mL
- MIC Staphylococcus aureus (GC 1131) (Staphylococcus sp.; Staphylococcus aureus (GC 1131)): >0.5 µg/mL
- MIC Staphylococcus aureus (GC 3051) (Staphylococcus sp.; Staphylococcus aureus (GC 3051)): 0.5 µg/mL
- MIC Staphylococcus aureus (GC 3053) (Staphylococcus sp.; Staphylococcus aureus (GC 3053)): 0.5 µg/mL
- MIC Staphylococcus aureus (GC 4541) (Staphylococcus sp.; Staphylococcus aureus (GC 4541)): 0.5 µg/mL
- MIC Staphylococcus aureus (GC 4542) (Staphylococcus sp.; Staphylococcus aureus (GC 4542)): 0.5 µg/mL
- MIC Staphylococcus aureus (GC 4544) (Staphylococcus sp.; Staphylococcus aureus (GC 4544)): 0.5 µg/mL
- MIC Staphylococcus aureus (GC 4545) (Staphylococcus sp.; Staphylococcus aureus (GC 4545)): 0.5 µg/mL
- MIC Staphylococcus aureus-SMITH (GC 4543) (Staphylococcus sp.; Staphylococcus aureus-SMITH (GC 4543)): 0.5 µg/mL
- MIC Staphylococcus haemolyticus (GC 4546) (Staphylococcus sp.; Staphylococcus haemolyticus (GC 4546)): 32 µg/mL
- MIC Staphylococcus aureus (ATCC 29213) (Staphylococcus sp.; broth dilution, strain ATCC 29213): >0.5 µg/mL
- MIC Staphylococcus aureus (GC 1131) (Staphylococcus sp.; broth dilution, strain GC 1131): >0.5 µg/mL
- MIC Staphylococcus aureus (GC 3051) (Staphylococcus sp.; broth dilution, strain GC 3051): 0.5 µg/mL
- MIC Staphylococcus aureus (GC 3053) (Staphylococcus sp.; broth dilution, strain GC 3053): 0.5 µg/mL
- MIC Staphylococcus aureus (GC 4541) (Staphylococcus sp.; broth dilution, strain GC 4541): 0.5 µg/mL
- MIC Staphylococcus aureus (GC 4542) (Staphylococcus sp.; broth dilution, strain GC 4542): 0.5 µg/mL
- MIC Staphylococcus aureus-SMITH (GC 4543) (Staphylococcus sp.; broth dilution, strain GC 4543): 0.5 µg/mL
- MIC Staphylococcus aureus (GC 4544) (Staphylococcus sp.; broth dilution, strain GC 4544): 0.5 µg/mL
- MIC Staphylococcus aureus (GC 4545) (Staphylococcus sp.; broth dilution, strain GC 4545): 0.5 µg/mL
- MIC Staphylococcus haemolyticus (GC 4546) (Staphylococcus sp.; broth dilution, strain GC 4546): 32 µg/mL
- MIC Coagulase Negative Staphylococcus (GC 4547) (Staphylococcus sp.; broth dilution, strain GC 4547): 32 µg/mL
- MIC Coagulase Negative Staphylococcus (GC 4548) (Staphylococcus sp.; broth dilution, strain GC 4548): 64 µg/mL
- MIC Coagulase Negative Staphylococcus (GC 4549) (Staphylococcus sp.; broth dilution, strain GC 4549): 32 µg/mL
- MIC Coagulase Negative Staphylococcus (GC 4551) (Staphylococcus sp.; broth dilution, strain GC 4551): 64 µg/mL
- MIC Coagulase Negative Staphylococcus (GC 6257) (Staphylococcus sp.; broth dilution, strain GC 6257): 32 µg/mL
- MIC Streptococcus agalactiae (GC 4564) (Streptococcus sp.; Streptococcus agalactiae (GC 4564)): 32 µg/mL
- MIC Streptococcus pneumoniae (GC 4565) (Streptococcus sp.; Streptococcus pneumoniae (GC 4565)): 16 µg/mL
- MIC Streptococcus pyogenes (GC 4563) (Streptococcus sp.; Streptococcus pyogenes (GC 4563)): 16 µg/mL
- MIC Streptococcus pyogenes (GC 4563) (Streptococcus sp.; broth dilution, strain GC 4563): 16 µg/mL
- MIC Streptococcus agalactiae (GC 4564) (Streptococcus sp.; broth dilution, strain GC 4564): 32 µg/mL
- MIC Streptococcus pneumoniae (GC 4565) (Streptococcus sp.; broth dilution, strain GC 4565): 16 µg/mL

— patent US8247211B2, “Glycopeptide antibiotics” (American Cyanamid Company, priority 2001, dated 2012)
